Experimental findings from PubChem BioAssay (NCI) are described below.

SMILES strings stand for the structures.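 Method: 48-hour compound exposure of cells in 96-well plates, five concentrations, linear interpolation of endpoints. GI50: concentration for 50% inhibition of growth. Definition used: TGI = concentration required for complete inhibition of growth.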 Bounds are passed on as bounds.

Common to all, as to experiment: NCI tumour cell line growth inhibition, 48 h
Assay [1] concerns HCT-116 colon.
The subject of assay [2] is NCI-H460 lung.
In assay [3] the test system is T-47D breast.
In assay [4] the test system is IGROV1 ovarian.
For assay [5], the system named is SK-OV-3 ovarian.
The subject of assay [6] is COLO 205 colon.
The test system of assay [7] is OVCAR-4 ovarian.
In assay [8] the test system is SF-295 CNS.
Assay [9] relates to OVCAR-3 ovarian.
The subject of assay [10] is SF-539 CNS.
For assay [11], the system named is HT29 colon.

For `Cc1ccc(S(=O)(=O)N/N=C2\C=C[C@]3(CC2)C(=O)N(C)c2ccccc23)cc1`, the TGI in assay [1], in assay [2], in assay [3], in assay [4], in assay [5] and in [6] was > 100 µM in each case. The TGI in [7], in assay [8] and in assay [9] was > 100 µM in each case.
On to `S=C(Nc1ccc(Br)cn1)NC12CC3CC(CC(C3)C1)C2`, for which the TGI in assay [1] is 35.3 µM; in assay [2] it was > 100 µM; in [3] it was > 100 µM; in assay [4], 30.2 µM; in assay [5], 67.6 µM; in [6], > 100 µM. In addition, the TGI in [7] is > 100 µM; in [8], 49.5 µM; in assay [10] it was 33.7 µM; in [9], > 100 µM.
In the case of `NNC(=O)c1n[nH]nc1SSc1n[nH]nc1C(=O)NN`, the TGI in [1], in [2], in [4], in assay [5], in assay [6] and in [7] was > 100 µM throughout. The TGI in [8], in [10], in [9] and in assay [11] was > 100 µM throughout.
As to `CCN(CC)CCNc1ccc(C)c2sc3ccc(O)cc3c(=O)c12`, the TGI amounted to 2.56 µM in [1]; 1.37 µM in [2]; 5.19 µM in assay [4]; 5.59 µM in assay [5]; 3.27 µM in [6]; 6.12 µM in assay [7]. Further, the TGI in assay [8] is 1.98 µM; in assay [10], 2.5 µM; in assay [9], 4.4 µM; in assay [11], 3.24 µM.
As to `COc1ccc2c(c1)c1cc(OC)ccc1n2CCCCOc1ccc(-c2c3ccccc3c(-c3ccc(OCCCCn4c5ccc(OC)cc5c5cc(OC)ccc54)cc3)c3ccccc23)cc1`, the TGI in [1], in assay [4], in assay [5], in assay [6], in assay [7] and in [10] was > 100 µM each time. The TGI in assay [9] was > 100 µM.
In the case of `CC1OC(=O)c2ccccc2NC1=O` (centres undefined), the TGI in assay [1], in assay [2], in assay [4], in assay [5], in [6] and in assay [7] was > 100 µM throughout. The TGI in assay [8], in assay [10], in [9] and in [11] was > 100 µM throughout.
Consider `CCOC(=O)CCC(NC(=O)OCc1ccccc1)C(=O)NC(CCC(=O)OCC)C(=O)NC(CCC(=O)OCC)C(=O)NC(CCC(=O)OCC)C(=O)NC(CCC(=O)OCC)C(=O)OCC` (centres undefined), for which the TGI in assay [1], in assay [2], in assay [3], in [4], in [5] and in assay [6] was > 100 µM throughout. In addition, the TGI in [7], in assay [8] and in [11] was > 100 µM throughout.
For `C#CCOC(=O)c1ccccc1OC(C)=O`, the TGI in assay [1], in assay [2], in assay [3], in assay [4], in assay [5] and in assay [6] was > 100 µM each time. Further, the TGI in [7], in assay [8] and in assay [10] was > 100 µM in each case.
With `O=C(CCN1CCCC1)Nc1ccc2c(NCCCc3ccccc3)c3ccccc3nc2c1`, the GI50 is 0.46 µM in [2]; 1.34 µM in [3]; 0.812 µM in assay [7]; 1.31 µM in assay [8]; 1.24 µM in [10]. Besides, the TGI in assay [2] worked out at 1.6 µM; in assay [3], 3.91 µM; in assay [7], 2.26 µM; in assay [8], 2.59 µM; in assay [10], 2.55 µM.
Consider `CSC(=NCCN=C(NS(=O)(=O)c1ccc(Cl)cc1)SC)NS(=O)(=O)c1ccc(Cl)cc1`, for which the TGI was > 100 µM in assay [1]; > 100 µM in assay [2]; > 100 µM in assay [4]; 59.1 µM in [5]; > 100 µM in assay [6]; > 100 µM in assay [7]. The TGI in assay [8], in [10], in [9] and in [11] was > 100 µM throughout.
Turning to `N#Cc1c(-c2ccc(Cl)cc2)c(C#N)c(=O)n(NS(=O)(=O)c2ccccc2)c1-c1ccccc1`, the TGI in assay [1], in [2], in assay [5], in assay [6], in assay [7] and in assay [8] was > 25 µM throughout. For the same compound, the TGI in [10] was > 25 µM.
With `CC(=O)c1cn(-c2ccc(Cl)cc2)c(=O)c2c(N)n[nH]c12`, the TGI in assay [1], in assay [2], in [3], in assay [4], in [5] and in assay [6] was > 100 µM in each case. Further, the TGI in assay [7], in [8] and in assay [11] was > 100 µM in each case.
On to `C/C(=N\Nc1ccc([N+](=O)[O-])cc1)C(=O)N(C)Nc1ccccc1`, for which the TGI in assay [2], in [4], in assay [5], in [6], in assay [7] and in [8] was > 100 µM each time. In addition, the TGI in assay [10], in assay [9] and in assay [11] was > 100 µM each time.
In the case of `CC(=O)Oc1c(OC(C)=O)c(-c2ccc(O)c(O)c2)c(O)c(O)c1-c1ccc(O)cc1`, the GI50 in assay [1] was 36.1 µM; in assay [2], 69.7 µM; in assay [7], 59 µM; in assay [9], 59.5 µM. Besides, the TGI in assay [1], in [2], in assay [4], in assay [5], in assay [6] and in assay [7] was > 100 µM in each case. The TGI in assay [8], in [10], in [9] and in assay [11] was > 100 µM each time.
As to `C=C(Cl)C(Cl)(CBr)CCC(Cl)C(C)(C)Cl` (centres undefined), the TGI in assay [1] worked out at 2.02 µM; in assay [2], 2.83 µM; in assay [4], 26.3 µM; in [5], 70.8 µM; in assay [6], 10.5 µM; in assay [7] it was 3.88 µM. Also, the TGI is 7.73 µM in assay [8], 1.35 µM in [10], 3.34 µM in assay [9] and 0.968 µM in assay [11].
`Cc1n[nH]c(=O)n1N=C(c1ccccc1)c1ccccc1`: the TGI in [1], in assay [2], in assay [4], in assay [6], in [7] and in [8] was > 100 µM throughout. For the same compound, the TGI in assay [9] and in assay [11] was > 100 µM in each case.
Consider `CC(=O)OC[C@@]12C[C@H]3C(=O)C(C)(C)C[C@H]3[C@]1(C)[C@@H](OC(C)=O)[C@]1(O)[C@H]([C@@H](OC(=O)c3ccccc3)[C@@H](C)[C@H]1OC(C)=O)[C@H]2OC(C)=O`, for which the TGI in assay [1], in assay [2], in assay [3], in assay [4], in assay [5] and in assay [6] was > 20 µM throughout. Besides, the TGI in assay [7], in assay [8], in assay [10] and in [9] was > 20 µM throughout.
With `CC(C)(C)OC(=O)NC(Cc1ccc([N+](=O)[O-])cc1)C(=O)NC(CCCCNC(=O)OCc1ccccc1)C(=O)ON1C(=O)CCC1=O` (centres undefined), the TGI in assay [1], in [2], in assay [4], in assay [5], in assay [6] and in assay [7] was > 100 µM in each case. Also, the TGI in assay [8], in assay [10], in assay [9] and in assay [11] was > 100 µM each time.
For the compound `CCN(CC)CCCNC(=O)Cc1ccccc1Nc1c(Cl)cccc1Cl`, the TGI was 27.2 µM in assay [1]; 36.5 µM in assay [4]; 29.1 µM in assay [5]; 28.3 µM in assay [6]; 33.1 µM in assay [7]; 32.7 µM in assay [8]. The TGI was 28.7 µM in assay [10], 31.5 µM in assay [9] and 17.6 µM in [11].
`CC12ON=C(c3ccccc3)N1C=CN1C(c3ccccc3)=NOC12` (centres undefined): the TGI in assay [1], in [2], in assay [4], in assay [5], in assay [6] and in [8] was > 100 µM in each case. Also, the TGI in assay [10] and in assay [9] was > 100 µM in each case.
Regarding `COc1cc(CC2c3cc(OC)c(OC)cc3CCN2C)c(Oc2cc3c(cc2OC)-c2c(OC)c(OC)c(OC)c4c2C(C3)N(C)CC4)cc1OC` (centres undefined), the TGI came out at 24.3 µM in assay [1]; 32.7 µM in [2]; 29.9 µM in assay [4]; 35 µM in assay [5]; 20.9 µM in assay [6]; 33.1 µM in assay [7]. Besides, the TGI in assay [8] is 28.8 µM; in [10], 25.8 µM; in [9], 28.2 µM; in [11] it was > 36.5 µM.
Take `CCN1/C(=C/C(C)=C/c2sc3ccccc3[n+]2CC)Sc2ccccc21`: the TGI in assay [1] stood at 1.42 µM; in [2] it was 0.517 µM; in [4] it was 2 µM; in assay [5] it was 0.375 µM; in [7] it was 1.62 µM; in assay [8] it was 0.491 µM. In addition, the TGI in [10] stood at 1.11 µM; in assay [11] it was 1.72 µM.
`Nc1ccn(C2OC(COP(=O)(O)Oc3ccccc3)C(O)C2O)c(=O)n1` (centres undefined): the TGI in assay [1], in assay [2], in [4], in assay [5], in assay [6] and in assay [7] was > 100 µM in each case. The TGI in assay [8], in assay [10], in [9] and in [11] was > 100 µM in each case.
As for `CNC(=O)CN1CC(=O)N(C)C(=O)C1`, the TGI in assay [4], in [5], in assay [6], in [7] and in assay [9] was > 100 µM in each case.
Regarding `C=C1C(=O)OC2/C=C(\C)C(O)/C=C\C(C)(O)CC(OC(=O)/C(C)=C/C)C12` (centres undefined), the TGI in assay [1] was 30 µM; in assay [2], > 100 µM; in [4], > 100 µM; in assay [5], > 100 µM; in [6], 28.9 µM; in assay [7], > 100 µM. In addition, the TGI in assay [8] was > 100 µM; in assay [10] it was 20.7 µM; in assay [9] it was 46.2 µM; in assay [11] it was > 100 µM.
As for `NC(CCCCNc1ccn(C2OC(CO)C(O)C2O)c(=O)n1)C(=O)O` (centres undefined), the TGI in assay [2], in assay [3], in [4], in [6], in assay [7] and in assay [8] was > 100 µM in each case. For the same compound, the TGI in assay [10] and in [9] was > 100 µM in each case.
`CC(=O)Nc1ccc(-c2nnc(SCC(=O)Nc3ccc(C)cc3)o2)cc1`: the TGI in assay [1] is 29.1 µM; in assay [2], 42.7 µM; in assay [4], 28.6 µM; in assay [5], > 100 µM; in [6], 31.6 µM; in [7], 32.6 µM. Besides, the TGI in [8] is 35.5 µM; in [10], 27.3 µM; in [9], 37.2 µM; in [11] it was 31.1 µM.
